One assay has as its target CSF-1R (Homo sapiens (Human), UniProt P07333). The assay is described as follows: In vitro CSF-1R kinase activity measured by trFRET. It counts as biochemical. To be noted: recombinant human catalytic domain (aa 538-910), 0.1 mM ATP; read-out: CSF-1R enzyme IC50. How it is done:
In Vitro CSF-1R Kinase Activity Measured by Time-Resolved Fluorescence Resonance Energy Transfer (trFRET)
(§1) The CSF-1R construct corresponds to recombinant human catalytic domain (aa 538-910), which was purchased from Invitrogen (cat #PV4092). CSF-1R was mixed with peptide substrate (biotin-TYR1, Sequence: Biotin-(Ahx)-GAEEEIYAAFFA-COOH, 4 μM final) at varying inhibitor concentrations in reaction buffer: 50 mM MOPSO pH 6.5, 10 mM MgCl2, 2 mM MnCl2, 2.5 mM DTI, 0.01% BSA, 0.1 mM Na3VO4 and 0.1 mM ATP. After about 60 min incubation at rt, the reaction was quenched by addition of EDTA (final concentration: 100 mM) and developed by addition of detection reagents (final approximate concentrations: 30 mM HEPES pH 7.0, 0.06% BSA, 0.006% Tween-20, 0.24 M KF, 80 ng/mL PT66K (europium labeled anti-phosphotyrosine antibody cat #61T66KLB Cisbio, Bedford, Mass.) and 0.6 μg/mL SAXL (Phycolink streptavidin-allophycocyanin acceptor, cat #PJ25S, Prozyme, San Leandro, Calif.). The developed reaction was incubated in the dark for about 60 min at rt, then read via a time-resolved fluorescence detector (Rubystar, BMG) using a 337 nm laser for excitation and monitoring emission wavelength at 665 nm. Within the linear range of the assay, the observed signal at 665 nm was directly related to phosphorylated product and can be used to calculate the IC50 values.
Sequence of CSF-1R (P07333 538-910): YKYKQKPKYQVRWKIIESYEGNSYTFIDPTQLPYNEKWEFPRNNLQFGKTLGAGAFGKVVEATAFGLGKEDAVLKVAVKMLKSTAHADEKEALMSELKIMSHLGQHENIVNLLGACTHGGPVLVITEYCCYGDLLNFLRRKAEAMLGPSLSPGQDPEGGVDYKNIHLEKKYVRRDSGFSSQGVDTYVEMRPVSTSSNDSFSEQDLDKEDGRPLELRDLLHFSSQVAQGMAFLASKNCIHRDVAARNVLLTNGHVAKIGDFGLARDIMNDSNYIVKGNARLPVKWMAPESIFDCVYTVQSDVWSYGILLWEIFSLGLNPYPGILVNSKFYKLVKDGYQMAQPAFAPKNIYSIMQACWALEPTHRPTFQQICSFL
Sequence of BTK (Q06187 393-659): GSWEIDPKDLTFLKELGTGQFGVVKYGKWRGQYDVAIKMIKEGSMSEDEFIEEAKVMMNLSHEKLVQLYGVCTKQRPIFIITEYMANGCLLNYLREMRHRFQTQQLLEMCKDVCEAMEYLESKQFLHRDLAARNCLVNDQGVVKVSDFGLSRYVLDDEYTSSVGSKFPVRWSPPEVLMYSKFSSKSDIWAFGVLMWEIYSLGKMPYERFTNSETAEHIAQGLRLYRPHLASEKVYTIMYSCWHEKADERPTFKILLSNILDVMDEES
Consider `Cn1cc(Nc2nc([C@@H]3CCC[C@@H](O)C3)cn3ncnc23)cn1` (single isomer, unassigned) [Example 10], for which the IC50 – broadly, the concentration needed to halve the response being measured – is below 100 nM.
On the same count and under the same terms, next, `CC(C)(O)CCn1cc(Nc2nc(C3CCCCC3)cn3ncnc23)cn1` [A.1.1, 4-(4-((6-cyclohexyl-[1,2,4]triazolo[1,5-a]pyrazin-8-yl)amino)-1H-pyrazol-1-yl)-2-methylbutan-2-ol]: below 100 nM; `c1nc2c(Nc3cnn(C4CCOCC4)c3)nc(C3CCCCC3)cn2n1` [A.1.2, 6-cyclohexyl-N-(1-(tetrahydro-2H-pyran-4-yl)-1H-pyrazol-4-yl)-[1,2,4]triazolo[1,5-a]pyrazin-8-amine]: below 100 nM; `c1nc2c(Nc3cnn(C4COC4)c3)nc(C3CCCCC3)cn2n1` [A.1.4, 6-cyclohexyl-N-(1-(oxetan-3-yl)-1H-pyrazol-4-yl)-[1,2,4]triazolo[1,5-a]pyrazin-8-amine]: below 100 nM.
On the same count and under the same terms, in the case of `c1nc2c(Nc3cn[nH]c3)nc(C3CCCCC3)cn2n1` [A.1.7, 6-cyclohexyl-N-(1H-pyrazol-4-yl)-[1,2,4]triazolo[1,5-a]pyrazin-8-amine] it was below 100 nM.
Still for that read-out and setting: next, `CCOC(=O)[C@H]1CC[C@@H](n2cc(Nc3nc(C4CCCCC4)cn4ncnc34)cn2)CC1` [A.1.8, cis-ethyl 4-(4-((6-cyclohexyl-[1,2,4]triazolo[1,5-a]pyrazin-8-yl)amino)-1H-pyrazol-1-yl)cyclohexanecarboxylate]: below 100 nM; `c1nc2c(Nc3cnn(C4CCNCC4)c3)nc(C3CCCCC3)cn2n1` [D.1.1, 6-cyclohexyl-N-(1-(piperidin-4-yl)-1H-pyrazol-4-yl)-[1,2,4]triazolo[1,5-a]pyrazin-8-amine]: below 100 nM; `c1nc2c(Nc3cnn(C4CCNCC4)c3)nc(C3CCCC3)cn2n1` [D.1.2, 6-cyclopentyl-N-(1-(piperidin-4-yl)-1H-pyrazol-4-yl)-[1,2,4]triazolo[1,5-a]pyrazin-8-amine]: below 100 nM.
Turning to `CC(C)n1cc(Nc2nc(C3CCCCC3)cn3ncnc23)cn1` [E.1.1, 6-cyclohexyl-N-(1-isopropyl-1H-pyrazol-4-yl)-[1,2,4]triazolo[1,5-a]pyrazin-8-amine], the IC50 was below 100 nM.
On to `Cn1cc(Nc2nc(C3CCC(C)(C)CC3)cn3ncnc23)cn1` [E.1.2, 6-(4,4-dimethylcyclohexyl)-N-(1-methyl-1H-pyrazol-4-yl)-[1,2,4]triazolo[1,5-a]pyrazin-8-amine], for which the IC50 was below 100 nM.
On the same count and under the same terms, in the case of `Cn1cc(Nc2nc([C@H]3CC[C@H](C)CC3)cn3ncnc23)cn1` [E.1.3] it was below 100 nM; in that of `Cn1cc(Nc2nc([C@H]3CC[C@@H](C)CC3)cn3ncnc23)cn1` [E.1.4], below 100 nM; in that of `Cn1cc(Nc2nc([C@H]3CC[C@H](C(F)(F)F)CC3)cn3ncnc23)cn1` [E.1.5, N-(1-methyl-1H-pyrazol-4-yl)-6-((1R,4R)-4-(trifluoromethyl)cyclohexyl)-[1,2,4]triazolo[1,5-a]pyrazin-8-amine], below 100 nM.
Consider `c1nc2c(Nc3cc4n(n3)CCOC4)cc(C3CCCCC3)cn2n1` [E.1.6, N-(6-cyclohexyl-[1,2,4]triazolo[1,5-a]pyridin-8-yl)-6,7-dihydro-4H-pyrazolo[5,1-c][1,4]oxazin-2-amine], for which the IC50 was below 100 nM.
Still for that read-out and setting: in the case of `CN1CCn2nc(Nc3cc(C4CCCCC4)cn4ncnc34)cc2C1` [E.1.7, 6-cyclohexyl-N-(5-methyl-4,5,6,7-tetrahydropyrazolo[1,5-a]pyrazin-2-yl)-[1,2,4]triazolo[1,5-a]pyridin-8-amine] it was below 100 nM; in that of `Cn1cc(Nc2nc(C3CCCC3)cn3ncnc23)cn1` [E.1.8, 6-cyclopentyl-N-(1-methyl-1H-pyrazol-4-yl)-[1,2,4]triazolo[1,5-a]pyrazin-8-amine], below 100 nM; in that of `CN1CCn2nc(Nc3cc(C4CCCC4)cn4ncnc34)cc2C1` [E.1.9, 6-cyclopentyl-N-(5-methyl-4,5,6,7-tetrahydropyrazolo[1,5-a]pyrazin-2-yl)-[1,2,4]triazolo[1,5-a]pyridin-8-amine], below 100 nM.
Same read-out and setting: next, `Cn1cc(Nc2nc(C3CCCCC3)cn3ncnc23)cn1` [E.1.10, 6-cyclohexyl-N-(1-methyl-1H-pyrazol-4-yl)-[1,2,4]triazolo[1,5-a]pyrazin-8-amine]: below 100 nM.
Consider `CC(C)(O)Cn1cc(Nc2nc(C3CCCCC3)cn3ncnc23)cn1` [Example 11, 1-(4-((6-cyclohexyl-[1,2,4]triazolo[1,5-a]pyrazin-8-yl)amino)-1H-pyrazol-1-yl)-2-methylpropan-2-ol], for which the IC50 was below 100 nM.
The same measure, in the same setting: in the case of `c1nc2c(Nc3cc4n(n3)CCOC4)cc(C3CCCC3)cn2n1` [Example 12, N-(6-cyclopentyl-[1,2,4]triazolo[1,5-a]pyridin-8-yl)-6,7-dihydro-4H-pyrazolo[5,1-c][1,4]oxazin-2-amine] it was below 100 nM; in that of `OC1CCN(c2ccc(Nc3cc(C4CCCCC4)cn4ncnc34)nc2)CC1` [Example 13, 1-(6-((6-cyclohexyl-[1,2,4]triazolo[1,5-a]pyridin-8-yl)amino)pyridin-3-yl)piperidin-4-ol], below 100 nM.

The target of a further assay is BTK (Homo sapiens (Human), UniProt Q06187). The assay is described as follows: In vitro BTK kinase activity measured by trFRET. The format is biochemical. To be noted: recombinant human catalytic domain (aa 393-659), 0.01 mM ATP; read-out: Btk enzyme IC50. On the procedure:
In Vitro BTK Kinase Activity Measured by Time-Resolved Fluorescence Resonance Energy Transfer (trFRET)
as §1, with “The in-house BTK” for “The CSF-1R construct”, “(aa 393-659),” for “(aa 538-910),”, “was expressed in SF9 cells with an N-terminal his tag and purified by immobilized metal affinity chromatography. BTK” for “was purchased from Invitrogen (cat #PV4092). CSF-1R”, “Biotin-(Ahx)-GAEEEIYAAFFA-COOH, 0.4” for “Biotin-(Ahx)-GAEEEIYAAFFA-COOH, 4”, “mM DTT,” for “mM DTI,”, “and 0.01” for “and 0.1”
With `C=CC(=O)N1CC[C@H](c2cc(Nc3ccn(C)n3)c3ncnn3c2)C1` [F.1.38, (R)-1-(3-(8-((1-methyl-1H-pyrazol-3-yl)amino)-[1,2,4]triazolo[1,5-a]pyridin-6-yl)pyrrolidin-1-yl)prop-2-en-1-one], the IC50 is below 100 nM.
On the same count and under the same terms, next, `C=CC(=O)N1CC[C@@H](c2cc(Nc3cc4n(n3)CCN(C)C4)c3ncnn3c2)C1` [F.1.39]: below 100 nM; `C=CC(=O)N1CCC[C@@H](c2cc(Nc3cc4n(n3)CCN(C)C4)c3ncnn3c2)C1` [F.1.40]: below 100 nM; `C=CC(=O)N1CCC(c2cc(Nc3cc4n(n3)CCOC4)c3nccn3n2)C1` (centres unmarked) [F.1.41, 1-(3-(8-((6,7-dihydro-4H-pyrazolo[5,1-c][1,4]oxazin-2-yl)amino)imidazo[1,2-b]pyridazin-6-yl)pyrrolidin-1-yl)prop-2-en-1-one]: below 100 nM.
Consider `C=CC(=O)N1CC(c2cc(Nc3cc4n(n3)CCOC4)c3ncnn3c2)C1` [F.1.42], for which the IC50 was below 100 nM.
On the same count and under the same terms, next, `C=CC(=O)N1CC[C@@H](c2cn3ncnc3c(Nc3ccc(OC)c(OC)c3)n2)C1` [F.1.112]: 1000 to 50000 nM; `Cn1ccc(Nc2cc(C3CCN(C#N)C3)cn3ncnc23)n1` (centres unmarked) [I.1, 3-(8-((1-methyl-1H-pyrazol-3-yl)amino)-[1,2,4]triazolo[1,5-a]pyridin-6-yl)pyrrolidine-1-carbonitrile]: 100 to 1000 nM; `Cn1ccc(Nc2cc(C3CCCN(C#N)C3)cn3ncnc23)n1` (centres unmarked) [I.1.1, 3-(8-((1-methyl-1H-pyrazol-3-yl)amino)-[1,2,4]triazolo[1,5-a]pyridin-6-yl)piperidine-1-carbonitrile]: 100 to 1000 nM.
As for `Cn1cc(Nc2nc(C3CCN(C#N)C3)cn3ncnc23)cn1` (centres unmarked) [I.1.2], the IC50 is 100 to 1000 nM.
Regarding `N#CN1CCCC(c2cc(Nc3cc4n(n3)CCOC4)c3ncnn3c2)C1` (centres unmarked) [I.1.3, 3-(8-((6,7-dihydro-4H-pyrazolo[5,1-c][1,4]oxazin-2-yl)amino)-[1,2,4]triazolo[1,5-a]pyridin-6-yl)piperidine-1-carbonitrile], the IC50 lay in the range of 100 to 1000 nM.
Consider `Cn1ccc(Nc2cc([C@H]3CCC[C@H](NC#N)C3)cn3ncnc23)n1` [I.1.4, N—((1S,3S)-3-(8-((1-methyl-1H-pyrazol-3-yl)amino)-[1,2,4]triazolo[1,5-a]pyridin-6-yl)cyclohexyl)cyanamide], for which the IC50 lay within 100 to 1000 nM.

(Values after patent publication US10280184B2, “Heterocyclic kinase inhibitors” (AbbVie Inc., priority 2014, dated 2019).)
